Here are results for 23 compounds from publication PMC11097166, “Imidazole-Derived Alkyl and Aryl Ethers: Synthesis, Characterization, In Vitro Anticancer and Antioxidant Activities, Carbonic Anhydrase I–II Inhibition Properties, and In Silico Studies” (ACS Omega, 2024).

Read-outs that look alike come from different tables or passages of the source.

The nature of series [1]: FRAP antioxidant assay. The note with it: trolox standard curve. The procedure: The FRAP method was used to determine the antioxidant power of compounds. This method, which determines the reducing power of compounds, was developed by Benzie and Strain.[48] Fe(III)–TPTZ complex is formed as a result of the reaction of Fe(III) with tripyridyltriazine (TPTZ), and this complex is reduced to the Fe(II)–TPTZ complex with the antioxidant in the environment. The color of this complex is dark blue and gives the maximum absorbance at 593 nm.[48] Incubation is performed for up to 30 min to complete the reaction, and the correct absorbance values were read. The FRAP values of the samples were calculated as “μmol trolox equiv/g sample” with the help of the standard curve obtained using methanol–trolox standard solutions (0; 0.2; 0.4; 0.6; 0.8; and 1.0 μmol/mL) which were used as the positive control.[49] […]

Series [2] has as its target hCA I (Homo sapiens, UniProt P00915). Description: CA esterase activity method, hCA I. As to Effect on hCA I isoenzyme activity: key: +: active; -: not effect. The following applies: for IC50: esterase activity, p-nitrophenyl acetate substrate; for Effect on hCA I isoenzyme activity: Table S3. The class given is biochemical. The text has this: (§1) The method used to spectrophotometrically detect the antiepileptic, antiglaucoma, and […] effects of the obtained compounds in vitro is the esterase activity method. This method relies on the esterase activity of CA for the hydrolysis of p-nitrophenyl acetate as a substrate, which is a part of the reaction mechanism involving p-nitrophenol or p-nitrophenolate.

Series [3] addresses hCA II (Homo sapiens, UniProt P00918). Put plainly: CA esterase activity method, hCA II. As to Effect on hCA II isoenzyme activity: key: +: active; -: not effect. The class given is biochemical. The following applies: for IC50: esterase activity, p-nitrophenyl acetate substrate; for Effect on hCA II isoenzyme activity: Table S3.
Source text: as §1

Series [4] concerns C6 rat glial tumor cell line. Put plainly: MTT cell viability assay on C6. The following applies: 24 h incubation. The series is classed as cell-based. The text has this: (§2) 96-well plates were used for seeding cells. […] All compounds were run in three repetitions.
Series [5] has as its system HT29 colon cancer cell line. Description: MTT cell viability assay on HT29. The series is classed as cell-based, human.
Source text: as §2

Series [6] has as its system MCF7 human breast adenocarcinoma cell line. Put plainly: MTT cell viability assay on MCF7. The class given is cell-based.
Source text: as §2

A short description of series [7]: MTT cell viability assay on L929. The following applies: mouse, L929 fibroblast cells.
Experimental: (§3) Human breast adenocarcinoma cell line (MCF7), rat glial tumor cell line (C6), healthy mouse fibroblast cell line (L929), and colon cancer (HT29) cell line were purchased from ATCC (American type culture collection) and studied.
(§4) The cytotoxic effects of all compounds by MTT analysis on L929, HT29, MCF7, and C6 cell lines were investigated. 96-well plates were used for seeding cells. Approximately 1 × 10^4 cells were seeded in each well. Cells were allowed to adhere for 24 h, and then the compounds were applied at different concentrations. All compounds were run in three repetitions. Wells with a maximum of 100 μM compounds were incubated for 24 h. Three wells without compounds treated with only DMSO (with total volume of % 0.5) were used as negative controls, and cisplatin was used as a positive control. […] After the MTT interaction, the FRAP wells were emptied, and DMSO solution was placed in them. The formazan crystals formed were dissolved with this solution, and the number of viable cells in each well was determined by color change.
In series [8] the test system is L929 mouse fibroblast cell line. Put plainly: MTT cell viability assay on L929. The note with it: for toxicity in L929 healthy cell line: 100 μM, 24 h, triplicate; for IC50: read-out: IC50 L929.
Experimental: as §3, §4
Setting [9] is: Homo sapiens, HT-29, 24 h incubation.
[10] abbreviates: Homo sapiens, MCF7, 24 h incubation.

Sequence of hCA I (P00915 whole entry): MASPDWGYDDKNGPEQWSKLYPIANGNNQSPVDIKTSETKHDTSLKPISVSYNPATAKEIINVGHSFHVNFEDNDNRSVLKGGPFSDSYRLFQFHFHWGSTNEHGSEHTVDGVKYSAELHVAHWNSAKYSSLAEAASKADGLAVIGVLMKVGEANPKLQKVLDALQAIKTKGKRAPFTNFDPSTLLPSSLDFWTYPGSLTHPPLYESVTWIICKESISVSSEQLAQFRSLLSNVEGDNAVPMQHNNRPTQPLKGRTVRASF

Consider `Clc1ccc(COC(Cn2ccnc2)c2ccc(Cl)cc2)cc1` (stereo not shown) [Compound 20, 1-(2-((4-Chlorobenzyl)oxy)-2-(4-chlorophenyl)ethyl)-1H-imidazole], for which, in [1], the FRAP is listed as 0.31 ± 0.06 μmol trolox equiv/g. Besides, the figures for the IC50 in series [2] and in series [3] were 0.00413 µM and 0.0109 µM, respectively.
The compound `CCOC(Cn1ccnc1)c1ccc(Cl)cc1` (stereo not shown) [Compound 10, 1-(2-(4-Chlorophenyl)-2-ethoxyethyl)-1H-imidazole] registered an FRAP in [1] of 0.20 ± 0.03 μmol trolox equiv/g. Moreover, the “Effect on hCA I isoenzyme activity” value in [2] is “+”. For the same compound, the “Effect on hCA II isoenzyme activity” value in series [3] is “+”.
Consider `C=CCOC(Cn1ccnc1)c1ccc(Cl)cc1` (stereo not shown) [Compound 12, 1-(2-(Allyloxy)-2-(4-chlorophenyl)ethyl)-1H-imidazole], for which, in series [1], the FRAP is 0.28 ± 0.04 μmol trolox equiv/g. Also, the “Effect on hCA I isoenzyme activity” value in [2] was “+”. Besides, in [3], the “Effect on hCA II isoenzyme activity” value is “+”.
As for `Clc1ccc(COC(Cn2ccnc2)c2ccccc2)cc1` (stereo not shown) [Compound 17, 1-(2-((4-Chlorobenzyl)oxy)-2-phenylethyl)-1H-imidazole], the FRAP in [1] amounted to 0.35 ± 0.07 μmol trolox equiv/g. Also, the concentration for half-maximal inhibition (IC50) in [2] amounted to 0.0132 µM; in series [3] it was 0.0148 µM.
As to `OC(Cn1ccnc1)c1ccccc1` (stereo not shown) [Compound 4a, 2-(1H-Imidazol-1-yl)-1-phenylethanol], the half-inhibitory concentration (IC50) was found to be 35.2 ± 0.55 µM in series [4] (Rattus norvegicus, 24 h); 74.6 ± 6.67 µM in series [5] (setting [9]); 104 ± 15.3 µM in series [6] (setting [10]); 166 ± 11.9 µM in [8] (Mus musculus, L929, 24 h). Also, the FRAP in [1] worked out at 0.31 ± 0.01 μmol trolox equiv/g. Moreover, the “Effect on hCA I isoenzyme activity” value in [2] was “+”. The “Effect on hCA II isoenzyme activity” value in series [3] is on record as “+”. Further, in series [7], the viability at 24 h, 100 μM was at least 50%. In addition, in series [8] (MTT), the “toxicity in L929 healthy cell line” value is recorded as “not toxic”.
Turning to `CCCOC(Cn1ccnc1)c1ccccc1` (stereo not shown) [Compound 8, 1-(2-Phenyl-2-propoxyethyl)-1H-imidazole], in [1], the FRAP is 0.19 ± 0.02 μmol trolox equiv/g. The “Effect on hCA I isoenzyme activity” value in series [2] is recorded as “+”. Besides, the “Effect on hCA II isoenzyme activity” value in series [3] is “+”.
Compound vitamin E [reference compound] returned an FRAP in series [1] of 1.00 ± 0.04 μmol trolox equiv/g.
In series [1], `Clc1ccc(C(Cn2ccnc2)OCc2ccccc2)cc1` (stereo not shown) [Compound 19, 1-(2-(Benzyloxy)-2-(4-chlorophenyl)ethyl)-1H-imidazole] yielded an FRAP of 0.27 ± 0.01 μmol trolox equiv/g. Also, the half-maximal inhibitory concentration (IC50) is 0.0157 µM in series [2] and 0.0117 µM in [3].
For `Cc1ccc(COC(Cn2ccnc2)c2ccc(Cl)cc2)cc1` (stereo not shown) [Compound 21, 1-(2-(4-Chlorophenyl)-2-((4-methylbenzyl)oxy)ethyl)-1H-imidazole], in that order: 0.25 ± 0.01 μmol trolox equiv/g, 0.00983 µM and 0.0079 µM.
In turn, `COc1ccc(C(=O)Cn2ccnc2)cc1` [Compound 3c, 2-(1H-Imidazol-1-yl)-1-(4-methoxyphenyl)ethanone] had an FRAP in series [1] of 0.21 ± 0.03 μmol trolox equiv/g. Also, the “Effect on hCA I isoenzyme activity” value in series [2] was “-”. For the same compound, the “Effect on hCA II isoenzyme activity” value in [3] is “-”.
Take `c1ccc(COC(Cn2ccnc2)c2ccccc2)cc1` (stereo not shown) [Compound 16, 1-(2-(Benzyloxy)-2-phenylethyl)-1H-imidazole]: the FRAP in series [1] is reported as 0.41 ± 0.03 μmol trolox equiv/g. In series [2], the “Effect on hCA I isoenzyme activity” value is “+”. Besides, the “Effect on hCA II isoenzyme activity” value in series [3] is “+”.
As for `N.N.[Cl][Pt][Cl]` [cisplatin, reference compound], the 50% inhibitory concentration (IC50) was determined as 88.2 ± 12.1 µM in series [4]; 68.2 ± 3.39 µM in series [5] (24 h incubation); 26.8 ± 11 µM in series [6] (24 h incubation); 277.7 ± 1.09 µM in series [8] (24 h incubation, MTT).
In [1], `CCOC(Cn1ccnc1)c1ccc(OC)cc1` (stereo not shown) [Compound 13, 1-(2-Ethoxy-2-(4-methoxyphenyl)ethyl)-1H-imidazole] yielded an FRAP of 0.15 ± 0.06 μmol trolox equiv/g. Moreover, the “Effect on hCA I isoenzyme activity” value in series [2] is “+”. The “Effect on hCA II isoenzyme activity” value in [3] is “+”.
In the case of `OC(Cn1ccnc1)c1ccc(Cl)cc1` (stereo not shown) [Compound 4b, 1-(4-Chlorophenyl)-2-(1H-imidazol-1-yl)ethanol], the concentration for half-maximal inhibition (IC50) in series [4] (Rattus norvegicus, 24 h) amounted to 20.1 ± 0.32 µM; in series [5] (setting [9]), 44.1 ± 4.27 µM; in series [6] (setting [10]) it was 84.9 ± 21.5 µM; in [8] (Mus musculus, L929, 24 h), 105 ± 10.1 µM. The compound also yielded an FRAP in [1] of 0.25 ± 0.02 μmol trolox equiv/g. In addition, the “Effect on hCA I isoenzyme activity” value in [2] is given as “+”. The “Effect on hCA II isoenzyme activity” value in [3] is given as “+”. In series [7], this compound displayed a viability at 24 h, 100 μM of at least 50%. For the same compound, the “toxicity in L929 healthy cell line” value in series [8] (MTT) is listed as “not toxic”.
For `C=CCOC(Cn1ccnc1)c1ccccc1` (stereo not shown) [Compound 9, 1-(2-(Allyloxy)-2-phenylethyl)-1H-imidazole], in series [1], the FRAP is 0.12 ± 0.01 μmol trolox equiv/g. Further, the “Effect on hCA I isoenzyme activity” value in [2] was “+”. Also, the “Effect on hCA II isoenzyme activity” value in series [3] is given as “+”.
In [1], `CCCOC(Cn1ccnc1)c1ccc(OC)cc1` (stereo not shown) [Compound 14, 1-(2-(4-Methoxyphenyl)-2-propoxyethyl)-1H-imidazole] returned an FRAP of 0.28 ± 0.01 μmol trolox equiv/g. In addition, the “Effect on hCA I isoenzyme activity” value in [2] is “+”. Further, in series [3], the “Effect on hCA II isoenzyme activity” value is listed as “+”.
Regarding `CCOC(Cn1ccnc1)c1ccccc1` (stereo not shown) [Compound 7, 1-(2-Ethoxy-2-phenylethyl)-1H-imidazole], the half-inhibitory concentration (IC50) stood at 26.1 ± 5.7 µM in [4] (Rattus norvegicus, 24 h); 102 ± 11.5 µM in series [5] (setting [9]); 122 ± 28.8 µM in series [6] (setting [10]); 173 ± 16.6 µM in series [8] (Mus musculus, L929, 24 h). The compound also gave an FRAP in series [1] of 0.10 ± 0.08 μmol trolox equiv/g. Moreover, the “Effect on hCA I isoenzyme activity” value in series [2] is reported as “+”. Besides, in series [3], the “Effect on hCA II isoenzyme activity” value is “+”. This compound came in with a viability at 24 h, 100 μM in [7] of at least 50%. The “toxicity in L929 healthy cell line” value in series [8] (MTT) is given as “not toxic”.
Turning to `COc1ccc(C(Cn2ccnc2)OCc2ccc(Cl)cc2)cc1` (stereo not shown) [Compound 23, 1-(2-((4-Chlorobenzyl)oxy)-2-(4-methoxyphenyl)ethyl)-1H-imidazole], the melting point was 104 to 105 °C. Moreover, in series [1], the FRAP turned out to be 0.45 ± 0.04 μmol trolox equiv/g. The same compound yielded an IC50 in series [2] of 0.00749 µM. Moreover, the IC50 in [3] is 0.00565 µM.
`Cc1ccc(COC(Cn2ccnc2)c2ccccc2)cc1` (stereo not shown) [Compound 18, 1-(2-((4-Methylbenzyl)oxy)-2-phenylethyl)-1H-imidazole] registered an FRAP in series [1] of 0.30 ± 0.04 μmol trolox equiv/g. The “Effect on hCA I isoenzyme activity” value in series [2] is recorded as “+”. Also, the “Effect on hCA II isoenzyme activity” value in series [3] is on record as “+”.
Compound `CCCOC(Cn1ccnc1)c1ccc(Cl)cc1` (stereo not shown) [Compound 11, 1-(2-(4-Chlorophenyl)-2-propoxyethyl)-1H-imidazole] showed an FRAP in [1] of 0.31 ± 0.07 μmol trolox equiv/g. Also, the “Effect on hCA I isoenzyme activity” value in [2] is recorded as “+”. For the same compound, in [3], the “Effect on hCA II isoenzyme activity” value is “+”.
Regarding `COc1ccc(C(Cn2ccnc2)OCc2ccc(C)cc2)cc1` (stereo not shown) [Compound 24, 1-(2-(4-Methoxyphenyl)-2-((4-methylbenzyl)oxy)ethyl)-1H-imidazole], in [1], the FRAP was found to be 0.46 ± 0.06 μmol trolox equiv/g. For the same compound, the values for the IC50 in [2] and in series [3] were 0.00477 µM and 0.00966 µM, respectively.
In turn, `COc1ccc(C(Cn2ccnc2)OCc2ccccc2)cc1` (stereo not shown) [Compound 22, 1-(2-(Benzyloxy)-2-(4-methoxyphenyl)ethyl)-1H-imidazole] came in with an FRAP in series [1] of 0.40 ± 0.05 μmol trolox equiv/g.
In [1], `C=CCOC(Cn1ccnc1)c1ccc(OC)cc1` (stereo not shown) [Compound 15, 1-(2-(Allyloxy)-2-(4-methoxyphenyl)ethyl)-1H-imidazole] showed an FRAP of 0.31 ± 0.03 μmol trolox equiv/g. The “Effect on hCA I isoenzyme activity” value in series [2] is recorded as “+”. Further, the “Effect on hCA II isoenzyme activity” value in [3] is recorded as “+”.
